“And” between values parts separate entries of the source, which are not always exact repeats. Equal entries are not always repeated. Where two headings read alike, the source gives them in different places.
Legend:
Alternaria brassicae = experiment: In vivo preventive test on Alternaria brassicae (leaf spot on radish); conditions: 500 ppm; radish plants sprayed 24 hours before contamination; grading 5 days after contamination vs control plants
Summary of the method: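 Radish plants ('Pernod Clair', grown at 17 °C) were spray-treated at the 2-leaf stage; controls received solvent mix only. After 24 h, leaves were sprayed with 50 000 spores/ml from 15-day-old cultures, and % efficacy was graded 5 days post-inoculation against controls.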

Botrytis cinerea = experiment: In vivo preventive test on Botrytis cinerea (grey mould); conditions: 500 ppm; gherkin plants sprayed 24 hours before contamination; grading 4-5 days after contamination vs control plants
Summary of the method: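 Gherkin plants ("Vert petit de Paris") sprayed with compound at Z11 cotyledon stage, then inoculated 24 h later with B. cinerea spores (50 000/ml) in PDB/fructose/NH4NO3/KH2PO4 nutrient solution. Incubated at 17 °C, 80% RH; % efficacy versus solvent-treated controls graded 4–5 days after contamination.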

[1] = type: physicochemical
Pyrenophora teres = experiment: In vivo preventive test on Pyrenophora teres (net blotch on barley); conditions: 500 ppm; barley plants sprayed 24 hours before contamination; grading 12 days after contamination vs control plants
Description: Barley plants (“Plaisant” variety), sown in starter cups on a 50/50 peat soil-pozzolana substrate and grown at 22° C. (12 h)/20° C. (12 h), are treated at the 1-leaf stage (10 cm height) by spraying with the active ingredient prepared as described above. Plants, used as controls, are treated with the mixture of acetone/tween/DMSO/water not containing the active material. After 24 hours, the plants are contaminated by spraying the leaves with an aqueous suspension of Pyrenophora teres spores (12 000 spores per ml). The spores are collected from a 12-day-old culture. […] Grading (% of efficacy) is carried out 12 days after the contamination, in comparison with the control plants.

Septoria tritici = experiment: In vivo preventive test on Septoria tritici (leaf spot on wheat); conditions: 500 ppm; wheat plants sprayed 24 hours before contamination; grading 21 to 28 days after contamination vs control plants
Summary of the method: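 Scipion wheat at 1-leaf stage sprayed with compound, controls receiving acetone/tween/DMSO/water vehicle; 24 h later leaves inoculated with Septoria tritici spores (500 000 spores per ml). Efficacy (%) graded versus control plants 21 to 28 days after contamination.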

Puccinia recondita = experiment: In vivo preventive test on Puccinia recondita (brown rust on wheat); conditions: 500 ppm; wheat plants sprayed 24 hours before contamination; grading 10 days after contamination vs control plants
Description: Wheat plants (“Scipion” variety), sown in starter cups on a 50/50 peat soil-pozzolana substrate and grown at 22° C. (12 h)/20° C. (12 h), are treated at the 1-leaf stage (10 cm height) by spraying with the active ingredient prepared as described above. Plants, used as controls, are treated with the mixture of acetone/tween/DMSO/water not containing the active material. After 24 hours, the plants are contaminated by spraying the leaves with an aqueous suspension of Puccinia recondita spores (100 000 spores per ml).

Uromyces appendiculatus = experiment: In vivo preventive test on Uromyces appendiculatus (bean rust); conditions: 500 ppm; bean plants sprayed 24 hours before contamination; grading 10 days after contamination vs control plants
Description: Bean plants (“Saxa” variety), sown in starter cups on a 50/50 peat soil-pozzolana substrate and grown at 24° C., are treated at the 2-leaf stage (9 cm height) by spraying with the active ingredient prepared as described above. Plants, used as controls, are treated with the mixture of acetone/tween/DMSO/water not containing the active material. After 24 hours, the plants are contaminated by spraying the leaves with an aqueous suspension of Uromyces appendiculatus spores (150 000 spores per ml).

Sphaerotheca fuliginea = experiment: In vivo preventive test on Sphaerotheca fuliginea (powdery mildew on cucurbits); conditions: 500 ppm; gherkin plants sprayed 24 hours before contamination; grading 12 days after contamination vs control plants
Summary of the method: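 Preventive spray of gherkin plants at Z11 cotyledon stage, grown at 24° C; inoculation 24 hours later with Sphaerotheca fuliginea spores (100 000 spores per ml). Efficacy graded 12 days post-inoculation as % versus solvent-treated control plants.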

Phytophthora infestans = type: in vivo; conditions: 500 ppm; tomato plants sprayed 24 hours before contamination; grading 5 days after contamination vs control plants
[2] = method [a]: HPLC/LC-MS on reversed phase at pH 2.7, 0.1% formic acid in water / acetonitrile, linear gradient 10% to 95% acetonitrile
[3] = method [a]: HPLC/LC-MS on reversed phase at pH 2.7, 0.1% formic acid in water / acetonitrile, gradient 10% to 95% acetonitrile
[4] = HPLC on reversed phase columns, method [a]: pH 2.7, 0.1% formic acid in water / acetonitrile, linear gradient 10% to 95% acetonitrile

| SMILES | % of efficacy (protection) (Alternaria brassicae) | % of efficacy (protection) (Botrytis cinerea) | log P [1, 2] | % of efficacy (protection) (Pyrenophora teres) | % of efficacy (protection) (Septoria tritici) | log P [1, 3] | % of efficacy (protection) (Puccinia recondita) | % of efficacy (protection) (Uromyces appendiculatus) | log P [1, 4] | % of efficacy (protection) (Sphaerotheca fuliginea) | % of efficacy (protection) (Phytophthora infestans) |
| --- | --- | --- | --- | --- | --- | --- | --- | --- | --- | --- | --- |
| C#Cc1cnc2ccc(C3=NOC(C)(C(=O)NCc4ccc5c(c4)CCO5)C3)cc2c1 (stereo not shown) [compound 219] | 75% | 99% | 2.78^[a] | 71% | – | – | – | – | – | – | – |
| CCn1cc(CNC(=O)C2(C)CC(c3ccc4ncc(C(F)(F)F)cc4c3)=NO2)c(C)n1 (racemic) [compound 383] | 83% | – | – | 86% | 100% | 2.45[a] | 94% | 99% | – | – | – |
| CCc1cnc2ccc(C3=NOC(C)(C(=O)NCc4cn(CC)nc4C)C3)cc2c1 (stereo not shown) [compound 256] | – | – | – | 75% | 100% | – | – | – | 1.72^[a] | – | – |
| COC1(C(=O)NC(C)C)CC(c2ccc3ncc(I)cc3c2)=NO1 (racemic) [compound 436] | – | – | – | 92% | 100% | 2.75[a] | 94% | 100% | – | 100% | – |
| C#Cc1cnc2ccc(C3=NOC(C)(C(=O)NC(C)c4ccccn4)C3)cc2c1 (stereo not shown) [compound 206] | – | – | 1.9^[a] | 71% | 100% | – | – | – | – | 94% | 93% |
| C#Cc1cnc2ccc(C3=NOC(C)(C(=O)NCc4ccccc4)C3)cc2c1 (stereo not shown) [compound 169] | – | 100% | 2.86^[a] | 79% | 100% | – | – | – | – | – | – |
| C#Cc1cnc2ccc(C3=NOC(CC)(C(=O)NCCCOCC)C3)cc2c1 (racemic) [compound 440] | – | – | – | 75% | – | 2.73[a] | – | – | – | 89% | – |
| C#Cc1cnc2ccc(C3=NOC(C)(C(=O)NCc4ccc(Cl)cc4)C3)cc2c1 (stereo not shown) [compound 200] | – | – | 3.23^[a] | 71% | – | – | – | – | – | – | – |
| C#Cc1cnc2ccc(C3=NOC(OC)(C(=O)NC(C)C)C3)cc2c1 (stereo not shown) [compound 406] | – | – | – | 83% | 100% | 2.35[a] | – | – | – | 100% | – |
| COC1C(c2ccc3ncc(Br)cc3c2)=NOC1(C)C(=O)NC(C)C (stereo not shown) [compound 419] | – | – | – | 75% | – | 2.91[a] | – | – | – | – | – |
| CC(C)NC(=O)C1(C)CC(c2ccc3ncc(N)cc3c2)=NO1 (racemic) [compound 435] | – | – | – | 83% | – | 1.19[a] | – | 77% | – | – | – |
| COC1(C(=O)NCC(O)CO)CC(c2ccc3ncc(Br)cc3c2)=NO1 (stereo not shown) [compound 477] | – | – | – | – | – | 1.59[a] | 90% | 86% | – | 75% | 98% |
| COC1(C(=O)NC2CCC2)CC(c2ccc3ncc(I)cc3c2)=NO1 (stereo not shown) [compound 482] | – | 100% | – | – | 100% | 2.95[a] | 83% | 98% | – | 100% | – |
| C#CCONC(=O)C1(C)CC(c2ccc3ncc(Br)cc3c2)=NO1 (stereo not shown) [compound 306] | 71% | – | – | 75% | 78% | – | – | 100% | 2.22[a] | – | – |
| CC1(C)OCC(CNC(=O)C2(C)CC(c3ccc4ncc(Br)cc4c3)=NO2)O1 (stereo not shown) [compound 129] | – | – | 2.64^[a] | 88% | 100% | – | – | 100% | – | 80% | 85% |
| CC(C)NC(=O)C1(C)CC(c2ccc3ncc(C(F)(F)F)cc3c2)=NO1 (racemic) [compound 384] | 83% | – | – | 86% | 100% | 2.90[a] | 89% | 79% | – | – | – |
| C#Cc1cnc2ccc(C3=NOC(OC)(C(=O)NCc4cn(CC)nc4C)C3)cc2c1 (racemic) [compound 442] | – | 100% | – | – | 97% | 2.14[a] | 89% | 88% | – | 100% | 94% |
| C#Cc1cnc2ccc(C3=NOC(CC)(C(=O)NCc4cn(CC)nc4C)C3)cc2c1 (racemic) [compound 438] | – | – | – | – | 100% | 2.37[a] | 88% | 97% | – | 89% | 87% |
| Cc1nn(C)c(C)c1CNC(=O)C1(C)CC(c2ccc3ncc(Br)cc3c2)=NO1 (stereo not shown) [compound 177] | – | – | 2.13^[a] | 86% | – | – | – | – | – | – | – |
| C#Cc1cnc2ccc(C3=NOC(C)(C(=O)NCc4ccc(Cl)cc4Cl)C3)cc2c1 (stereo not shown) [compound 198] | 98% | 95% | 3.73^[a] | 86% | 86% | – | – | – | – | – | – |
| CC1(C(=O)NCc2ccc3c(c2)CCO3)CC(c2ccc3ncc(Br)cc3c2)=NO1 (stereo not shown) [compound 122] | – | – | 3.13^[a] | 86% | – | – | – | – | – | – | – |
| Cc1c(CNC(=O)C2(C)CC(c3ccc4ncc(Br)cc4c3)=NO2)cnn1C (stereo not shown) [compound 179] | – | – | 2.15^[a] | 86% | – | – | – | – | – | – | – |
| Cc1cnc2ccc(C3=NOC(C)(C(=O)NC(C)C)C3)cc2c1 (stereo not shown) [compound 260] | – | 75% | – | 75% | 98% | – | – | – | 1.63^[a] | – | 90% |
| C#Cc1cnc2ccc(C3=NOC(OC)(C(=O)NC4CCC4)C3)cc2c1 (racemic) [compound 429] | – | 100% | – | – | 100% | 2.54[a] | 89% | 71% | – | 83% | – |
| C#Cc1cnc2ccc(C3=NOC(OC)(C(=O)NCC4COC(C)(C)O4)C3)cc2c1 (stereo not shown) [compound 476] | – | 100% | – | – | 97% | 2.35[a] | 90% | 77% | – | 98% | 85% |
| C#Cc1cnc2ccc(C3=NOC(C)(C(=O)NCc4cccc5ccccc45)C3)cc2c1 (stereo not shown) [compound 225] | – | – | 3.46^[a] | 79% | – | – | – | – | – | – | – |
| CCOCCCNC(=O)C1(OC)CC(c2ccc3ncc(Br)cc3c2)=NO1 (stereo not shown) [compound 52] | 71% and 75% | 100% | 2.68^[a] | 71% | 93% and 97% | – | 88% | – | – | 100% | – |
| C=C(C)C1(C(=O)NCC2COC(C)(C)O2)CC(c2ccc3ncc(Br)cc3c2)=NO1 (stereo not shown) [compound 520] | – | – | – | 88% | 79% | – | – | – | 3.29[a] | – | – |
